Measured values as given in patent publication US20030082135A1, “Pathway of RANTES-mediated chemokine synthesis in astrocytes and methods of use therefor” (priority 2001, published 2003).
Entries after “also recorded” stand apart in the source; their conditions may differ. Read-outs that look alike come from different tables or passages of the source. Where no end group is shown, it is not given here.

Key:
[1] = system: CXCR4, CX3CR1, CCR1, CCR5 transcripts in astrocytes; experiment: RPA for chemokine receptor transcripts in astrocytes; type: cell-based, mouse
Experimental: (§1) RNA isolation and RNase protection assay (RPA). RNA was prepared as in Luo, Y., et al. 1999. J Immunol 163:3985. RNase protection assays (RPA) for chemokine message were conducted with multi-probe templates according to the manufacture's protocol (RiboQuant assay kit, BD-PharMingen, San Diego, Calif.). Gels were scanned and radioactive bands quantitated using a phosphoimager (Molecular Dynamics, Sunnyvale, Calif.). Levels of uniformly expressed housekeeping genes large ribosomal subunit protein 32-3A (L32) or glyceraldehyde-3-phosphate dehydrogenase (GAPDH), were used for normalization. The value of each chemokine receptor band divided by the value of the indicated housekeeping gene band in the same sample yielded the relative intensity. Normalized receptor expression represents the ratio of the relative intensity following treatment with chemokine versus the relative intensity of medium alone.
Treatment with the RANTES-related chemokines RANTES or eotaxin, or with TNF-α also found to down-regulate expression of CX3CR1 transcripts. In addition, CXCR4 mRNA levels were decreased, while the levels of CCR1 transcripts were elevated. In contrast, little or no regulation of CCR5 was noted. The pooled results of 3-4 experiments indicate eotaxin caused an average 60% decrease in CXCR4 (P less than 0.01) and a 70% decrease in CX3CR1 mRNA (P less than 0.02) (FIG. 8.B). The effects of RANTES stimulation were similar with an average 70 and 90% reduction in CXCR4 and CX3CR1 transcripts, respectively (P less than 0.01).

[2] = system: primary neonatal mouse astrocyte cultures; experiment: RNase protection assay (RPA) for chemokine/cytokine transcripts in astrocyte cultures; type: cell-based; settings: for expression of transcripts for MIP-1α: PKA inhibitors alone, 3 h; for expression of TNF-α, RANTES, KC, MIP-1α, MIP-2, and MCP-1 transcripts: BALB/cJ neonatal astrocytes, chemokine for 6 h
Experimental: as §1, with “Astrocyte isolation and culture. […] RNA” for “RNA”, “RNA was prepared as in Luo, Y., et al. 1999. J Immunol 163:3985.” left out, “alone. Treatment with pharmacological inhibitors. Astrocytes were washed and resuspended in serum-and insulin-free complete medium and starved overnight. Cells were treated at 37° C. for 1 h with 100 ng/ml Pertussis toxin (PTx) before addition of RANTES or IL-1. […] The cells were harvested after a 3 h incubation with RANTES; RNA was prepared and assayed by RPA.” for “alone.”

[3] = system: MEK, ERK1/2, p90RSK, p38, SAPK/JNK phosphorylation in astrocytes; experiment: Western blotting of phosphorylated MAP kinase pathway proteins in astrocyte lysates; type: cell-based, mouse; settings: for effect on erk1/2 and RSK phosphorylation induced by H-89: 10-50 μM U0126 or 5 μM SB203580, 10 μM H-89 for 20 min
Experimental: SDS-PAGE and Western blotting. Astrocytes were treated for the indicated time with media or 100 ng/ml RANTES, eotaxin, or other materials as indicated. Cells (3×10^5 in Examples 1-3, or 2×10^4 in later Examples) were resuspended in 100 μl buffer (50 mM HEPES, pH 7.5, 150 mM NaCl, 2 mM EDTA, 2 mM EGTA, 1% Triton X-100, 50 mM Sodium fluoride, 5 mM Sodium pyrophosphate, 50 mM Sodium β-glycerophosphate, 1 mM Sodium Ortho-vanadate, 1 mM DTT, 1 mM PMSF, 10 μg/ml Leupeptin, and 10 μg/ml Aprotinin). Protein concentration of the whole cell extract was determined by BCA protein assay kit (Pierce, Rockford, Ill.). Samples (10 μg) were loaded and separated on a 10% SDS-polyacrylamide gel. After transfer to Hybond ECL nitrocellulose membrane (Amersham Pharmacia Biotech Inc, Piscataway, N.J.) or Zeta-probe blotting membranes (Bio-Rad, Richmond Calif.) blots were blocked overnight with 5% BSA at 4° C., and probed with the antibody indicated. Antibody against unphosphorylated or phosphorylated erk (Cell Signaling, Beverly, Mass.) was used at 1 μg/ml. Appropriate anti-immunoglobulin reagents were used to develop the blots by enhanced chemiluminescence (Amersham Pharmacia Biotech Inc, Piscataway, N.J.).
Little is known about the signaling mechanisms involved in astrocyte respones to chemokines. To examine components of the RANTES signal transduction pathway, phosphorylation of the MAP kinase kinase (MEK) and mitogen activated protein (MAP) kinases was examined. To minimize basal kinase activity, astrocytes were starved of serum for at least 3 h before treatment with chemokine. Whole cell lysates were separated by SDS-PAGE and examined by Western blot. Antibodies that specifically react with phosphorylated MEK or phosphorylated extracellular signal-related kinase (ERK) were used to detect the active kinases.

murine KC promoter = experiment: KC promoter luciferase reporter in transfected astrocytes; type: cell-based, mouse; settings: U0126 indicated amounts or 5 μM SB203580 plus 100 ng/ml RANTES, 24 h
Source text: Plasmids, transient transfection, and luciferase activity assay. The KC reporter plasmid was constructed by using a luciferase reporter gene pGL-3 basic vector (Promega, Madison, Wis.) driven by mouse KC promoter (−2878/+43). Wild-type p90RSK expression (WT pKH3) and dominant negative p90RSK expression (ΔΔ RSK pKH3) plasmids were obtained from Dr. John Blenis, Harvard Medical School. Astrocytes were transiently transfected with Lipofectamine 2000 reagent (Life Technologies, Gaithersburg, Md.) according to the manufacturer's protocol. After 24 h, the cells were stimulated with RANTES in absence or presence of the indicated inhibitor, and luciferase activity was determined after an additional 24 h, by the procedure according to the manufacturer (Promega, Madison, Wis.). Relative luciferase activity was normalized for cell lysate protein concentration as determined by BCA protein assay kit (Pierce, Rockford, Ill.). The Relative Fold Induction is the relative intensity of the experimental sample divided by the relative intensity of the medium control.
To establish whether RANTES up-regulation of chemokine production is mediated by activation of promoter elements, primary astrocyte cultures were transiently transfected with a murine KC promoter-luciferase construct, and reporter activity was monitored after RANTES treatment.

PKA = PKA activity assay on lysates of treated astrocytes; type: cell-based, mouse
Experimental: PKA activity assay. PKA activity was determined using a commercially available kit (Calbiochem, San Diego, Calif.) according to manufacturer's recommendations. Primary mouse astrocytes were grown in 6-well plates and then stimulated as described and lysed in 100 μl buffer (same buffer used for Western blotting) for 30 min. Five μl of the lysates were incubated with 20 μl PKA reaction mixture at 30° C. for 30 min. The reaction was terminated by adding 10 μl stop solution and ^32P radioactivity was counted.

[4] = system: intracellular cAMP in astrocytes; experiment: Intracellular cAMP in astrocytes (EIA); type: cell-based, mouse; settings: 1 μM forskolin, 1 h
Experimental: FIG. 8 is a set of bar graphs showing that RANTES reduced intracellular cAMP accumulation in astrocytes. Panel A. Astrocytes were treated with the indicated doses of RANTES or TCA4 for 5 min. Intracellular cAMP was detected as described in Materials and Methods. Values represent the mean±S.E.M of triplicate experiments. Panel B. Kinetics of intracellular cAMP levels. Astrocytes were treated with 100 ng/ml RANTES for indicated times. Panel C. RANTES inhibited forskolin-induced intracellular cAMP accumulation. Astrocytes were pretreated with 1 μM forskolin for 1 h then stimulated with the indicated amount of RANTES for 5 min. Intracellular cAMP was determined by EIA. Values are presented as relative cAMP level and represent the mean±S.E.M. of triplicate experiments.
To further elucidate the RANTES-mediated signaling pathway in astrocytes, intracellular cAMP levels were evaluated following chemokine stimulation. Primary mouse astrocytes were incubated with the indicated dose of RANTES or the negative control chemokine, TCA4 for 5 min and monitored for cAMP levels. RANTES (100 ng/ml) decreased intracellular cAMP levels by 68% in a dose dependent fashion (FIG. 8A).

TNF-α was tested. Which “CX3CR1 and CXCR4 expression” value [1] did it give?
Its value is “reduced”.

What about the “change in CCR5 transcripts” value [1] of the same molecule?
The value was “little or no change”.

What about the “increase of CCR1 transcripts” value [1] of the same molecule?
Its value is 55%.

How did the “expression of transcripts for MIP-1α” value [2] turn out when `O=S(=O)(NCCNC/C=C/c1ccc(Br)cc1)c1cccc2cnccc12` [H-89, reference compound] was run?
The value was “induced”.

And the “MEK, erk1/2 and RSK phosphorylation” value ([3]; indicated doses, 20 min, no RANTES)?
Its value is “induced”.

Which “expression of transcripts for MIP-1α” value [2] does the source give for `Nc1ncnc2c1nc(Br)n2C1OC2COP(O)(=S)OC2C1O` (stereo not drawn) [Rp-8-bromo-cAMP, reference compound] here?
The value was “induced”.

For `O=c1c(-c2ccc(O)cc2)coc2cc(O)cc(O)c12` [Genistein, genistein, reference compound], which “effect on RANTES-induced chemokine message” value ([2]; U0126 50 μM, genistein 100 μM, wortmannin 1 μM, added 30 min prior to chemokine, 3 h RANTES) is on record?
The value was “block chemokine message”.

`N#CC(=C(/N)Sc1ccccc1N)/C(C#N)=C(\N)Sc1ccccc1N` [U0126, reference compound] was tested. Which “effect on H-89 induced chemokine/cytokine transcription” value [2] did it give?
Its value is “inhibited; also recorded: blocked”.

And the “effect on RANTES-induced chemokine message” value [2]?
Its value is “blocked induction of chemokine transcripts”.

And the “effect on background level of RANTES transcript” value [2]?
Its value is “failed to diminish”.

And the “inhibition of RANTES-induced TNF-α and chemokine transcription” value [2]?
The value was “partially inhibited; also recorded: completely inhibited”.

What about the “effect on erk1/2 and RSK phosphorylation induced by H-89” value [3] of the same molecule?
The value was “blocked”.

What about the “effect on RANTES-induced RSK phosphorylation” value ([3]; varying concentrations before 100 ng/ml RANTES, 20 min) of the same molecule?
The value was “block RSK phosphorylation in a dose dependent fashion”.

What about the “effect on RANTES-induced KC reporter activity” value (murine KC promoter) of the same molecule?
Its value is “inhibit reporter activity”.

What about the “effect on PKA activity” value (PKA) of the same molecule?
Its value is “neither U0126 nor Raf-1 inhibitor decreased PKA activity”.

Which “expression of transcripts for MIP-1α” value [2] does the source give for “PKI: protein kinase A inhibitor 14-22 amide (SGRTGRRNA-NH2; UniProt P61925 14-22, looked up, fragment) [reference compound]” here?
Its value is “induced”.

Which MEK phosphorylation ([3]; protein kinase C inhibitor control, 20 min) does the source give for `CN(C)CCCn1cc(C2=C(c3c[nH]c4ccccc34)C(=O)NC2=O)c2ccccc21` [GF109203, reference compound] here?
The MEK phosphorylation was “failed to stimulate”.

`C=C[C@@]1(C)CC(=O)[C@]2(O)[C@@]3(C)[C@@H](O)CCC(C)(C)[C@@H]3[C@H](O)[C@H](OC(C)=O)[C@@]2(C)O1` [forskolin, reference compound] was tested. Which “increase of intracellular cAMP levels” value [4] did it give?
The value was “about 4 fold”.

SDF-1α was tested. Which “expression of TNF-α, RANTES, KC, MIP-1α, MIP-2, and MCP-1 transcripts” value (“expression of TNF-α, RANTES, KC, MIP-1α” below) [2] did it give?
Its value is “no effect”.

How did the “effect of cAMP analogue alone on transcription” value ([2]; 500 μM, no RANTES) turn out when `CCCC(=O)Nc1ncnc2c1ncn2[C@@H]1O[C@@H]2COP(=O)(O)O[C@H]2[C@H]1OC(=O)CCC` [db-cAMP, dibutyryl cAMP, reference compound] was run?
The value was “Neither cAMP analogue alone had any effect”.

And the “effects on KC and MIP-2 transcription” value ([2]; 500 μM, peaking at 2 h)?
Its value is “weak and transient”.

What about the “effect on astrocyte PKA activity” value (PKA; 1 μM forskolin, 500 μM db-cAMP or 500 μM 8-bromo-cAMP, 1 h) of the same molecule?
The value was “activated”.

What does the source list for `C[S+]([O-])c1ccc(-c2nc(-c3ccncc3)c(-c3ccc(F)cc3)[nH]2)cc1` (stereo not drawn) [SB203580, reference compound]?
effect on RANTES-mediated transcription of chemokine RNA [2]: failed to modulate; effect on erk1/2 and RSK phosphorylation induced by H-89 [3]: fail to block; effect on RANTES-induced KC reporter activity (murine KC promoter): did not inhibit

For “MCP-1: recombinant mouse CC-chemokine, purchased from BD-PharMingen”, which “expression of TNF-α, RANTES, KC, MIP-1α” value [2] is on record?
Its value is “no effect”.

What about the “modulation of expression of any of the receptor transcripts examined” value [1] of the same molecule?
Its value is “did not significantly modulate”.

B1: MIP-1β: recombinant mouse CC-chemokine, purchased from R&D System (protein, UniProt P14097 24-92, looked up)
C-C motif chemokine 4: APMGSDPPTSCCFSYTSRQLHRSFVMDYYETSSLCSKPAVVFLTKRGRQICANPSEPWVTEYMSDLELN
For B1, which “expression of TNF-α, RANTES, KC, MIP-1α” value [2] is on record?
The value was “up-regulated”.

B2: IL-1: recombinant murine IL-1β, purchased from Invitrogen (protein, UniProt P10749 118-269, looked up)
Interleukin-1 beta: VPIRQLHYRLRDEQQKSLVLSDPYELKALHLNGQNINQQVIFSMSFVQGEPSNDKIPVALGLKGKNLYLSCVMKDGTPTLQLESVDPKQYPKKKMEKRFVFNKIEVKSKVEFESAEFPNWYISTSQAEHKPVFLGNNSGQDIIDFTMESVSS
With B2 as the molecule, how does the “activation of the three MAP kinases (ERK1/2, SAPK/JNK, p38)” value ([3]; 20 ng/ml IL-1β, 20 min) read?
Its value is “activated”.

B3: MIP-1α: recombinant mouse CC-chemokine, purchased from R&D System (protein, UniProt P10855 24-92, looked up)
C-C motif chemokine 3: APYGADTPTACCFSYSRKIPRQFIVDYFETSSLCSQPGVIFLTKRNRQICADSKETWVQEYITDLELNA
For B3, which “expression of TNF-α, RANTES, KC, MIP-1α” value [2] is on record?
Its value is “up-regulated”.
